Consider 22 compounds from PubChem BioAssay (NCI).

Some test systems named below: MDA-MB-231 breast; SR leukemia; NCI/ADR-RES ovarian; HOP-92 NSCLC; RPMI-8226 leukemia; HL-60(TB) leukemia; A498 renal; M14 melanoma; OVCAR-8 ovarian; HCC-2998 colon.
What all share (assay): DTP human tumour cell line panel, 48 h

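In this assay, cells in 96-well plates receive the compound at five concentrations for 48 hours. Endpoints are linearly interpolated between the surrounding concentrations. Here, GI50 denotes the concentration required for 50% inhibition of growth. The concentration for full growth arrest is given as TGI.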

Consider `C1=NCCNCCN=Cc2ccc(cc2)OCc2cccc(n2)COc2ccc1cc2`, for which the TGI in the assay on MDA-MB-231 breast, in the assay on SR leukemia, in the assay on NCI/ADR-RES ovarian, in the assay with HOP-92 NSCLC, with RPMI-8226 leukemia and with HL-60(TB) leukemia was greater than 100 µM in each case. Besides, the TGI with A498 renal, in the assay on M14 melanoma and in the assay on OVCAR-8 ovarian was greater than 100 µM in each case.
In the case of `CC(=O)OCC(OC(C)=O)C(OC(C)=O)C(C=NN(C(C)=O)S(=O)(=O)c1ccc(/C=C2\NC(=O)NC2=O)cc1)OC(C)=O` (stereo not given), the TGI with MDA-MB-231 breast, in the assay on SR leukemia, in the assay on NCI/ADR-RES ovarian, in the assay on RPMI-8226 leukemia, in the assay with A498 renal and with HCC-2998 colon was greater than 100 µM each time. Further, the TGI in the assay on M14 melanoma and with OVCAR-8 ovarian was greater than 100 µM in each case. Moreover, the GI50 in the assay on RPMI-8226 leukemia is greater than 100 µM.
With `COC(=O)C1=CSC2(S1)C(C(=O)OC)=CSc1c2ssc1=Nc1ccccc1` (stereo not given), the TGI is 4.79 µM in the assay with MDA-MB-231 breast; 3.56 µM in the assay on SR leukemia; 3.8 µM in the assay with NCI/ADR-RES ovarian; 2.87 µM in the assay on RPMI-8226 leukemia; 6.54 µM with A498 renal; 4.25 µM in the assay on HCC-2998 colon. For the same compound, the TGI in the assay with M14 melanoma was 5.13 µM; in the assay on OVCAR-8 ovarian, 6.23 µM.
`CC1(C)CC(=O)c2c(nc3ccc4ccccc4c3c2-c2ccc(NC(=O)CCCC(=O)Nc3ccc(-c4c5c(nc6ccc7ccccc7c46)CC(C)(C)CC5=O)cc3)cc2)C1`: the concentration for total growth inhibition (TGI) in the assay with MDA-MB-231 breast, with SR leukemia, in the assay with NCI/ADR-RES ovarian, in the assay on HOP-92 NSCLC, in the assay with RPMI-8226 leukemia and in the assay on HL-60(TB) leukemia was greater than 100 µM in each case. Moreover, the TGI with A498 renal, with M14 melanoma and in the assay on OVCAR-8 ovarian was greater than 100 µM in each case.
On to `O=c1oc2ccccc2c(Nc2ccc3c(c2)S(=O)(=O)c2ccccc2O3)c1[N+](=O)[O-]`, for which the TGI with MDA-MB-231 breast was 67.9 µM; in the assay with SR leukemia it was 72.6 µM; in the assay on NCI/ADR-RES ovarian, greater than 100 µM; in the assay on HOP-92 NSCLC, 55.9 µM; with RPMI-8226 leukemia, 59.8 µM; with HL-60(TB) leukemia, 59.2 µM. Further, the TGI in the assay with HCC-2998 colon was 52.6 µM; in the assay with M14 melanoma, greater than 100 µM; in the assay on OVCAR-8 ovarian, 78.4 µM.
Consider `O=C1C2CC=CCC2C(=O)N1n1c(-c2ccccc2)n[nH]c1=O` (stereo not given), for which the TGI with MDA-MB-231 breast, in the assay on SR leukemia, in the assay on NCI/ADR-RES ovarian, with HOP-92 NSCLC, in the assay with RPMI-8226 leukemia and in the assay with A498 renal was greater than 100 µM throughout. Besides, the TGI in the assay on HCC-2998 colon, with M14 melanoma and with OVCAR-8 ovarian was greater than 100 µM throughout.
Turning to `O=C(CN1CCNCCN(CC(=O)N2CCCCC2)CCNCC1)N1CCCCC1`, the TGI was greater than 100 µM in the assay on MDA-MB-231 breast; greater than 100 µM in the assay on SR leukemia; greater than 100 µM in the assay with NCI/ADR-RES ovarian; greater than 100 µM in the assay with HOP-92 NSCLC; greater than 100 µM with RPMI-8226 leukemia; 69.4 µM with HL-60(TB) leukemia. For the same compound, the TGI with A498 renal, in the assay on M14 melanoma and in the assay on OVCAR-8 ovarian was greater than 100 µM throughout.
With `CN(/N=C(\C(=O)O)c1ccccc1)C1=NCCCN1`, the TGI in the assay on MDA-MB-231 breast, with SR leukemia, with NCI/ADR-RES ovarian, with HOP-92 NSCLC, in the assay with RPMI-8226 leukemia and in the assay on HL-60(TB) leukemia was greater than 100 µM throughout. Moreover, the TGI in the assay with A498 renal, in the assay on HCC-2998 colon and with OVCAR-8 ovarian was greater than 100 µM throughout.
With `COc1ccc(N2C(=O)C3c4[nH]c5ccc(C)cc5c4C4CCC(C)CC4C3C2=O)cc1` (stereo not given), the TGI was greater than 100 µM with MDA-MB-231 breast; greater than 100 µM in the assay on SR leukemia; greater than 100 µM in the assay on NCI/ADR-RES ovarian; greater than 100 µM in the assay on HOP-92 NSCLC; greater than 100 µM in the assay with RPMI-8226 leukemia; 85 µM with A498 renal. Besides, the TGI in the assay on M14 melanoma and in the assay on OVCAR-8 ovarian was greater than 100 µM each time.
As to `CC(=O)Nc1ccccc1SCCSSCCSc1ccccc1NC(C)=O`, the TGI in the assay on MDA-MB-231 breast was 91.4 µM; in the assay with SR leukemia, greater than 100 µM; with NCI/ADR-RES ovarian it was 94.8 µM; with HOP-92 NSCLC it was 64.4 µM; in the assay with RPMI-8226 leukemia, 42.2 µM; in the assay with HL-60(TB) leukemia, 44.8 µM. In addition, the TGI with HCC-2998 colon is 50.8 µM; with M14 melanoma, greater than 100 µM; in the assay with OVCAR-8 ovarian it was greater than 100 µM.
Regarding `Cc1ccc(-c2nc3ccc(Cl)cc3[nH]2)cc1`, the TGI with MDA-MB-231 breast, in the assay with SR leukemia, in the assay on NCI/ADR-RES ovarian, in the assay with HOP-92 NSCLC, in the assay with RPMI-8226 leukemia and with HL-60(TB) leukemia was greater than 100 µM each time. Moreover, the TGI with HCC-2998 colon, in the assay on M14 melanoma and in the assay on OVCAR-8 ovarian was greater than 100 µM in each case.
`C/C(=N\Nc1nc2ccccc2s1)c1ncccn1`: the TGI in the assay on MDA-MB-231 breast is greater than 64.6 µM; in the assay on SR leukemia it was 8.7 µM; with NCI/ADR-RES ovarian it was 0.0681 µM; in the assay with HOP-92 NSCLC it was 1.1 µM; in the assay with HL-60(TB) leukemia, greater than 100 µM; with A498 renal it was greater than 100 µM. Further, the TGI amounted to 11.9 µM with HCC-2998 colon and 0.0505 µM in the assay on OVCAR-8 ovarian.
Consider `CSc1nc(N)c(NC2OC(CO)C(O)C2O)c(=O)[nH]1` (stereo not given), for which the TGI in the assay on MDA-MB-231 breast, with SR leukemia, with NCI/ADR-RES ovarian, in the assay with RPMI-8226 leukemia, with HL-60(TB) leukemia and in the assay with A498 renal was greater than 100 µM throughout. Moreover, the TGI with M14 melanoma and with OVCAR-8 ovarian was greater than 100 µM in each case.
For `CCCCCCNC(=O)c1cnc(Cl)cn1`, the TGI in the assay with MDA-MB-231 breast is 32.4 µM; in the assay on SR leukemia it was 16.6 µM; with NCI/ADR-RES ovarian, 34.2 µM; in the assay on HOP-92 NSCLC it was greater than 100 µM; in the assay on RPMI-8226 leukemia it was greater than 100 µM; with HL-60(TB) leukemia, 47.8 µM. Further, the TGI stood at 26 µM in the assay on M14 melanoma and 34.5 µM in the assay with OVCAR-8 ovarian.
In the case of `CC1CCCc2c(C#N)c(N)nc(-c3ccc(Cl)cc3)c21` (stereo not given), the TGI in the assay on MDA-MB-231 breast is 81.8 µM; in the assay with SR leukemia it was 72.8 µM; in the assay on NCI/ADR-RES ovarian it was greater than 100 µM; with RPMI-8226 leukemia it was 39.2 µM; in the assay on HL-60(TB) leukemia it was 83.3 µM; in the assay with A498 renal, greater than 100 µM. Moreover, the TGI in the assay with M14 melanoma was 66.4 µM; in the assay with OVCAR-8 ovarian, greater than 100 µM.
Consider `CN(C)CCNC(=O)c1cccc2c(NCC(=O)O)c3ccccc3nc12`, for which the TGI in the assay on MDA-MB-231 breast was 69.5 µM; with SR leukemia, greater than 100 µM; in the assay with NCI/ADR-RES ovarian, 48.2 µM; in the assay on HOP-92 NSCLC, greater than 100 µM; in the assay with RPMI-8226 leukemia, greater than 100 µM; in the assay on HL-60(TB) leukemia, greater than 100 µM. Further, the TGI amounted to 57.9 µM in the assay on A498 renal, 52.2 µM in the assay on M14 melanoma and 38.5 µM in the assay on OVCAR-8 ovarian.
`COc1ccccc1NC(=O)/C(Cc1nc2ccc([N+](=O)[O-])cc2[nH]c1=O)=N\NC(=O)C[N+](C)(C)C`: the TGI was greater than 100 µM in the assay on MDA-MB-231 breast; 6.47 µM in the assay with SR leukemia; greater than 100 µM with NCI/ADR-RES ovarian; greater than 100 µM in the assay on HOP-92 NSCLC; 93.1 µM in the assay with HL-60(TB) leukemia; greater than 100 µM with HCC-2998 colon. Moreover, the TGI with M14 melanoma and in the assay on OVCAR-8 ovarian was greater than 100 µM throughout.
With `NNC(=O)c1ccc(-n2nnc(C(=O)NN)c2C(=O)NN)cc1`, the TGI in the assay on MDA-MB-231 breast, in the assay on SR leukemia, in the assay with NCI/ADR-RES ovarian, in the assay on HOP-92 NSCLC, with RPMI-8226 leukemia and in the assay with HL-60(TB) leukemia was greater than 100 µM in each case. For the same compound, the TGI in the assay with HCC-2998 colon, in the assay with M14 melanoma and in the assay on OVCAR-8 ovarian was greater than 100 µM in each case.
`O=C(NNC1=NCCN1)c1ccco1`: the TGI with MDA-MB-231 breast, in the assay with SR leukemia, in the assay on NCI/ADR-RES ovarian, with HOP-92 NSCLC, in the assay on RPMI-8226 leukemia and in the assay with HL-60(TB) leukemia was greater than 100 µM in each case. The TGI in the assay with HCC-2998 colon, in the assay on M14 melanoma and in the assay with OVCAR-8 ovarian was greater than 100 µM each time.
For `O=C(NCCCCCCCCNC(=O)c1cc(-c2ccccc2)nc2ccccc12)c1cc(-c2ccccc2)nc2ccccc12`, the TGI in the assay with MDA-MB-231 breast, in the assay with SR leukemia, with NCI/ADR-RES ovarian, with HOP-92 NSCLC, with RPMI-8226 leukemia and in the assay on HL-60(TB) leukemia was greater than 100 µM throughout. The concentration for total growth inhibition (TGI) in the assay on A498 renal, in the assay on M14 melanoma and with OVCAR-8 ovarian was greater than 100 µM in each case.
Regarding `CN(C)c1ccc(N=Nc2ccc3nc[nH]c3c2)cc1`, the TGI in the assay on MDA-MB-231 breast is 39.4 µM; with SR leukemia, 87.5 µM; in the assay on NCI/ADR-RES ovarian, greater than 100 µM; in the assay with RPMI-8226 leukemia, 59.2 µM; in the assay with HL-60(TB) leukemia it was greater than 100 µM; in the assay on A498 renal it was 41.5 µM. Moreover, the values for the TGI in the assay on M14 melanoma and with OVCAR-8 ovarian were 46.8 µM and greater than 100 µM, respectively.
In the case of `CN(C(=O)Cc1cc(Cl)c(Cl)cc1N=C=S)[C@H]1CCCC[C@@H]1N1CCCC1`, the TGI in the assay on MDA-MB-231 breast came to 28.6 µM; in the assay on SR leukemia it was 3.49 µM; with NCI/ADR-RES ovarian, 36.9 µM; with HOP-92 NSCLC, 21.9 µM; with RPMI-8226 leukemia, 28 µM; in the assay with HL-60(TB) leukemia it was 23.8 µM. Besides, the concentration for total growth inhibition (TGI) with A498 renal was found to be 27 µM; with M14 melanoma it was 29.6 µM; with OVCAR-8 ovarian it was 28.8 µM.
